According to the NIST ThermoML archive (doi:10.1016/j.jct.2007.04.005):
± gives the expanded uncertainty stated by the source.

Experiment: xn = mol fraction of the nth substance listed
Details: 318.15 K, Liquid

CCCCCCCCC [nonane] + C1CCCCC1
mass density [kg/m3]
Details | x2 = 0 | x2 = 0.09303 | x2 = 0.2009 | x2 = 0.3051 | x2 = 0.417 | x2 = 0.512 | x2 = 0.5996 | x2 = 0.7052 | x2 = 0.7993 | x2 = 0.9039
18340 kPa | – | – | – | – | – | – | – | 745.3 ± 1.3 | 752.1 ± 1.2 | 761.1 ± 1.2
20370 kPa | 715 ± 1.6 | 717.9 ± 1.5 | 721.8 ± 1.5 | 725.9 ± 1.5 | 730.6 ± 1.5 | 735.2 ± 1.4 | 740.2 ± 1.4 | 746.9 ± 1.4 | 753.7 ± 1.3 | 762.7 ± 1.3
22390 kPa | 716.5 ± 1.7 | 719.4 ± 1.6 | 723.3 ± 1.6 | 727.4 ± 1.6 | 732.2 ± 1.5 | 736.7 ± 1.5 | 741.8 ± 1.5 | 748.4 ± 1.4 | 755.3 ± 1.4 | 764.3 ± 1.3
24420 kPa | 717.9 ± 1.7 | 720.8 ± 1.7 | 724.8 ± 1.7 | 728.8 ± 1.6 | 733.6 ± 1.6 | 738.2 ± 1.6 | 743.3 ± 1.5 | 749.9 ± 1.5 | 756.8 ± 1.5 | 765.8 ± 1.4
26450 kPa | 719.4 ± 1.8 | 722.3 ± 1.8 | 726.2 ± 1.8 | 730.3 ± 1.7 | 735.1 ± 1.7 | 739.7 ± 1.6 | 744.8 ± 1.6 | 751.4 ± 1.6 | 758.3 ± 1.5 | 767.4 ± 1.5
28470 kPa | 720.8 ± 1.9 | 723.6 ± 1.9 | 727.6 ± 1.8 | 731.7 ± 1.8 | 736.5 ± 1.8 | 741.1 ± 1.7 | 746.2 ± 1.7 | 752.9 ± 1.6 | 759.8 ± 1.6 | 768.9 ± 1.5
29490 kPa | 721.4 ± 1.9 | 724.3 ± 1.9 | 728.3 ± 1.9 | 732.4 ± 1.8 | 737.2 ± 1.8 | 741.8 ± 1.8 | 746.9 ± 1.7 | 753.6 ± 1.7 | 760.5 ± 1.6 | 769.6 ± 1.6
30500 kPa | 722.1 ± 2 | 725 ± 1.9 | 729 ± 1.9 | 733.1 ± 1.9 | 737.9 ± 1.8 | 742.5 ± 1.8 | 747.6 ± 1.8 | 754.3 ± 1.7 | 761.2 ± 1.7 | 770.3 ± 1.6
32530 kPa | 723.4 ± 2.1 | 726.4 ± 2 | 730.4 ± 2 | 734.4 ± 1.9 | 739.3 ± 1.9 | 743.8 ± 1.9 | 749 ± 1.8 | 755.7 ± 1.8 | 762.6 ± 1.7 | 771.7 ± 1.7
34550 kPa | 724.8 ± 2.1 | 727.7 ± 2.1 | 731.8 ± 2.1 | 735.8 ± 2 | 740.6 ± 2 | 745.2 ± 1.9 | 750.4 ± 1.9 | 757.1 ± 1.8 | 764 ± 1.8 | 773.2 ± 1.7
36580 kPa | 726.1 ± 2.2 | 729 ± 2.2 | 733.1 ± 2.1 | 737.1 ± 2.1 | 742 ± 2 | 746.6 ± 2 | 751.7 ± 2 | 758.5 ± 1.9 | 765.4 ± 1.8 | 774.5 ± 1.8
38600 kPa | 727.5 ± 2.3 | 730.4 ± 2.3 | 734.5 ± 2.2 | 738.5 ± 2.2 | 743.3 ± 2.1 | 748 ± 2.1 | 753.1 ± 2 | 759.9 ± 2 | 766.8 ± 1.9 | 776 ± 1.8
39620 kPa | 728.1 ± 2.3 | 731 ± 2.3 | 735.1 ± 2.2 | 739.1 ± 2.2 | 744 ± 2.2 | 748.6 ± 2.1 | 753.8 ± 2.1 | 760.6 ± 2 | 767.5 ± 1.9 | 776.7 ± 1.9
